# Assay results: EP4623928A1, “GLP-1R ANTAGONISTS FOR THE TREATMENT OF CANCER” (Fiorina, Paolo, priority 2024, dated 2025)
# What was measured:
# [1] = system: mitogen-stimulated murine splenocytes; assay: IFN-γ ELISpot assay on anti-CD3/anti-CD28 stimulated splenocytes; assay type: cell-based, C57BL/6 mice; conditions: Exe-9 added to Exe-4, 0.1, 1 or 10 nM, 24 hours
# Protocol: An ELISPOT assay was used to measure the number of IFN-γ-producing cells according to the manufacturer's protocol (BD Biosciences) as previously performed by our group (39). To test the role of GLP-1R-driven immunity on the anti-CD3/28 non-autoimmune specific response, 1×10^6 splenocytes isolated from C57BL/6 mice were cultured in a microwell plate (BD Biosciences) coated with IFN-y capture antibody (Ab) in the presence of the following soluble anti-CD3 and anti-CD28 at 0,5ug/ml for 24 hours. Exe-4 and/or Exe-4+Exe-9-39 at concentrations of 0.1, 1 or 10 nM were added to the culture. After 24 hours, bound secondary Ab was visualized using HRP-streptavidin and the AEC substrate kit (BD Biosciences). Spots were counted using an Immunospot analyzer (Cellular Technology Ltd., Cleveland, OH) and expressed as the number of cytokine-producing spots per 1×10^6 cells. After 24hours, ELISpot plates were developed and acquired on an ELISpot reader, as previously described.
# CD4^+ and CD8^+ T cells = assay: Cell death and proliferation of CD4+ and CD8+ T cells in splenocytes activated with anti-CD3/anti-CD28 (FACS); assay type: cell-based, C57BL/6 mice
# islet allografts = assay: Murine islet allotransplantation (BALB/c islets into STZ-treated C57BL/6 mice); assay type: in vivo
# Protocol: Pancreatic islets from BALB/c mice were isolated by collagenase digestion and density gradient separation as previously described (33, 34). Subsequently, four to five hundred islets were inoculated under the renal capsule of each C57BL/6 recipient rendered diabetic with streptozotocin (STZ) (200 mg/kg, administered i.p. Sigma-Aldrich). Islet transplantation success was confirmed by glycaemia normalization. Rejection of islet allografts was defined as blood glucose levels >250 mg/dl for at least 2 consecutive days (35). Treatment modalities were the following: transplanted mice were intraperitoneally injected according to the following protocols: 1) Exendin-4 (Exe-4) (Amylin Pharmaceuticals, San Diego, CA -USA) 0.2pg twice/day for two weeks after transplant; 2) Exe-4 0.2pg twice/day from the day before until two weeks after transplant; 3) Exendin-4 2µg twice/day from the day before until two weeks after transplant; 4) Exendin-4 2µg twice/day + Exendin-9-39 (Exe-9) (Sigma-Aldrich) 2µg twice/day from the day before until two weeks after transplant; 5) Exendin-4 2µg twice/day from the day before until two weeks after transplant + Rapamycin 0.1mg/die for two weeks; 6) saline 0.5ml twice/day for two weeks. The follow-up of the transplanted mice was for 100 days.
# Cardiac allografts = assay: Murine cardiac allotransplantation (BALB/c hearts into C57BL/6 mice); assay type: in vivo
# Protocol: Cardiac allografts from BALB/c mice were transplanted intra-abdominally in C57BL/6 mice using microsurgical techniques as described (31). Rejection was determined as complete cessation of cardiac contractility and was confirmed by direct visualization. Transplanted mice were intraperitoneally injected according to the following protocols: 1) Exendin-4 (Exe-4) (Amylin Pharmaceuticals, San Diego, CA - USA) 0.2pg twice/day for two weeks after transplant; 2) Exe-4 0.2pg twice/day from the day before until two weeks after transplant; 3) Exe-4 2µg twice/day from the day before until two weeks after transplant; 4) Exe-4 2µg twice/day + Exendin-9-39 (Exe-9) (Sigma-Aldrich) 2µg twice/day from the day before until two weeks after transplant; 5) Exe-4 2µg twice/day from the day before until two weeks after transplant + Rapamycin 0.1mg/die for two weeks; 6) saline 0.5ml twice/day for two weeks.
# [2] = system: MC38 colorectal cancer cells; assay: Colorectal tumour model (MC38 cells injected into the distal posterior rectum); assay type: in vivo, C57BL/6 mice
# Protocol: Female C57BL/6 mice were anesthetized with 100 mg/kg of ketamine and 50 mg/kg of xylazine. Next, by using a 29-gauge syringe, 2×10^5 MC38 cells were injected submucosally into the distal posterior rectum in a final volume of […], as described previously (36, 37). MC38-injected mice were randomly assigned into 2 groups: (i) Exe-9-treated group (n=8), where all mice received an intraperitoneal injection of 2 µg of Exendin-9-39 (Exe-9) starting by Day1 for a total of 14 days; (ii) untreated-group (n=6), where all mice received an IP injection of PBS starting by day 1 and for a total of 14 days. Tumour growth was visually monitored daily. After animals' sacrifice, tumours were measured by a digital calliper measuring tumour length, width, and height and were weighted using a digital scale. Procedures involving mice wereb conformed to institutional guidelines in agreement with national and international law and were approved by the ethics committee by the Ministry of Health.
# [3] = co-administration Exe-4 2µg twice/day + Exe-9 2µg twice/day
# [4] = splenic, Exe-9 co-administration with Exe-4
# [5] = 2 µg of Exe-9 once a day for 14 days, vs untreated
# [6] = Exe-9-treated group vs untreated
substance,measurement,setting,value
Exendin-9-39 [Exe-9],effect of Exe-9 on the Exe-4-induced reduction of IFN-y producing cells,[1],significantly hampered the overseen immunoregulatory effect of Exe-4
same,effect of Exe-9 on Exe-4-induced cell death,"CD4^+ and CD8^+ T cells; Exe-9 added to Exe-4, anti-CD3/anti-CD28 activated splenocytes",reduced the effect
same,percentages of proliferating (or cell trace positive) CD4^+ and CD8^+ T cells,"CD4^+ and CD8^+ T cells; addition of antagonist Exe-9 to Exe-4, anti-CD3/CD28 Abs (Fig. 13D-E)",No differences
same,effect of Exe-9 on the beneficial effects of Exe-4 (islet allograft survival),islet allografts; [3],partly abolished
same,graft infiltration (Hematoxylin and eosin staining),"islet allografts; islet allograft at day 14, co-administration of Exe-9 with Exe-4",restored the graft infiltration
same,CD8^+ effector cell number,islet allografts; [4],restored CD8^+ effector cell number
same,Tregs,islet allografts; [4],did not affect Tregs
same,effect of Exe-9 on the beneficial effects of Exe-4 (heart allograft survival),Cardiac allografts; [3],partly abolished
same,effect of Exe-9 on the Exe-4-induced decrease of graft infiltration,"Cardiac allografts; day-7 heart allograft, Exe-9 co-administration with Exe-4",abolished
same,effect of Exe-9 on the Exe-4-induced decrease of CD4^+ and CD8^+ effector T cells,Cardiac allografts; [4],reverted
same,tumour size,"[2]; 2 µg of Exe-9 once a day for 14 days, intraperitoneal, vs untreated (PBS)",significantly reduced
same,colon length,[2]; [5],no differences
same,mesenteric lymph nodes volume,[2]; [5],significantly reduced
same,spleen weight,[2]; [5],no differences
same,CD3^+ and CD8^+ effector memory T cells within the spleen and mesenteric lymph nodes,[2]; [6],no major differences
same,tumor infiltration of CD3^+ T cells (FACS),[2]; [6],increased infiltration
same,tumor infiltration of activated effector memory CD8^+ T cells (FACS),[2]; [6],increased infiltration
same,intratumoral infiltration of CD3^+ T cells (pathological examination),"[2]; Exe-9-treated group vs untreated, immunohistochemistry",significant intratumoral infiltration
